Literature values as cited in patent US20050014769A1, “Use of endothelin receptor antogonists for the treatment of tumour diseases” (priority 2001, published 2005).
Square brackets hold non-standard residues; d marks the D form. Peptide text beside a SMILES is read from it.

Tests used:
[1] = tested on: prostate cancer cell lines; settings: in vitro; Nelson J B et al. Cancer Research 56, 663-668, 1996
[2] = tested on: primary ovarian carcinoma cells; settings: Bagnato A et al. Cancer Res 59, 720-727, 1999
ovarian carcinoma cells = settings: Del Bufalo D et al., Molecular Pharmacology 61/3, 2002
[3] = tested on: intestinal cancer cell lines; settings: Ali H et al. Gut 47, 685-688, 2000
metastasis formation = settings: rat metastasis model; Asham E et al. British Journal of Cancer 81/11, 2001
[4] = tested on: HPV positive cervical carcinomas; settings: cervical carcinoma; Venuti A et al., FASEB 14/14, 2279-2283, 2000
melanoma cells = settings: in vitro; AACR Abstract No. 358, 2002
[5] = tested on: pancreas tumour cells (ASPC-1); settings: in vivo; AACR Abstract No. 3365, 2000

In the case of `CCCCN(CCCC)C(=O)CN1C[C@H](c2ccc3c(c2)OCO3)[C@@H](C(=O)O)[C@@H]1c1ccc(OC)cc1` [Atrasentan], the “growth of various prostate cancer cell lines” value [1] is listed as “inhibits the growth”.

For `CC(C)C[C@@H]1NC(=O)[C@@H](C(C)C)NC(=O)[C@@H]2CCCN2C(=O)[C@@H](CC(=O)O)NC(=O)[C@@H](Cc2c[nH]c3ccccc23)NC1=O` [BQ123] (cyclo(L[dW][dD]P[dV])), the “proliferation of tumour cells” value [2] is given as “inhibits the proliferation”, the “ET-1 protection against apoptosis” value (ovarian carcinoma cells) is given as “can be eliminated” and the “ET-1 stimulated proliferation of intestinal cancer cell lines” value [3] is given as “can be inhibited”. The metastasis formation (metastasis formation) was “inhibits metastasis formation” and the “ET-1 stimulated proliferation of tumour cells” value [4] was “can be inhibited”.

For `COc1ccccc1Oc1c(NS(=O)(=O)c2ccc(C(C)(C)C)cc2)nc(-c2ncccn2)nc1OCCO` [Bosetan], the “proliferation of melanoma cells” value (melanoma cells) is listed as “inhibits the proliferation”.

In the case of `COc1ccccc1Oc1c(NS(=O)(=O)c2ccc(C(C)C)cn2)nc(-c2ccnc(-c3nnn[nH]3)c2)nc1OCCO` [Ro 61-612/001], the “proliferation of pancreas tumour cells (ASPC-1)” value [5] is listed as “inhibits the proliferation”.
